# Results: patent US20100003246A1, “Novel heterocyclic compounds and uses therof” (priority 2008, published 2010)
# Target: T1, b-Raf(V600E) (Homo sapiens, UniProt P15056, V600E)
# T1 construct: made in house
# Experiment: Raf/Mek Amplified Luminescence Proximity Homogeneous Assay (Alpha Screen), b-Raf(V600E)
# Assay type: biochemical
# Details: mutant b-Raf(V600E), read-out: mut-b-RAF (IC50 in uM)
# Experimental: Assay buffer: 50 mM Tris, pH 7.5, 15 mM MgCl2, 0.01% BSA, 1 mM DTT Stop buffer: 60 mM EDTA, 0.01% Tween20 Bead buffer: 50 mM Tris, pH 7.5, 0.01% Tween20
# b-Raf(V600E), active: Recombinant in-house material biotinylated Mek, kinase dead: Recombinant in-house material Alpha Screen detection kit PerkinElmer, #6760617R Anti phospho-MEK½ Cell signaling #9121 384 well assay plates: White Greiner plates, #781207
# b-Raf(V600E) approximately 4 pM c-Raf approximately 4 nM biotinylated Mek, Kinase dead approximately 10 nM
# Pre-incubation time with compounds 60 min at room temperature Reaction time 1 or 3 hours at room temperature
# Raf and biotinylated Mek, kinase dead, were combined at 2× final concentrations in assay buffer (50 mM Tris, pH 7.5, 15 mM MgCl2, 0.01% BSA and 1 mM DTT) and dispensed 10 μl per well in assay plates (Greiner white 384 well assay plates #781207) containing 0.5 μl of 40× of a raf kinase inhibitor test compound diluted in 100% DMSO. The plate was incubated for 60 min at room temperature.
# The Raf kinase activity reaction was started by the addition of 10 μl per well of 2×ATP diluted in assay buffer. After 3 hours (bRaf(V600E)) or 1 hour (c-Raf), the reactions were stopped with the addition of 10 μl of stop reagent (60 mM EDTA). Phosphorylated product was measured using a rabbit anti-p-MEK (Cell Signaling, #9121) antibody and the Alpha Screen IgG (Protein A) detection Kit (PerkinElmer #6760617R), by the addition of 30 μL to the well of a mixture of the antibody (1:2000 dilution) and detection beads (1:2000 dilution of both beads) in bead buffer (50 mM Tris, pH 7.5, 0.01% Tween20). The additions were carried out under dark conditions to protect the detection beads from light. A lid was placed on top of the plate and incubated for 1 hour at room temperature, then the luminescence was read on a PerkinElmer Envision instrument. The concentration of each compound for 50% inhibition (IC50) was calculated by non-linear regression using XL Fit data analysis software.
# The Raf/Mek Amplified Luminescence Proximity Homogeneous Assay described was used to generate the luminescence and mutant b-Raf(V600E) IC50 data for selected Raf Kinase Inhibitors shown in Table 1 above.
# T1 sequence (P15056 whole entry V600E): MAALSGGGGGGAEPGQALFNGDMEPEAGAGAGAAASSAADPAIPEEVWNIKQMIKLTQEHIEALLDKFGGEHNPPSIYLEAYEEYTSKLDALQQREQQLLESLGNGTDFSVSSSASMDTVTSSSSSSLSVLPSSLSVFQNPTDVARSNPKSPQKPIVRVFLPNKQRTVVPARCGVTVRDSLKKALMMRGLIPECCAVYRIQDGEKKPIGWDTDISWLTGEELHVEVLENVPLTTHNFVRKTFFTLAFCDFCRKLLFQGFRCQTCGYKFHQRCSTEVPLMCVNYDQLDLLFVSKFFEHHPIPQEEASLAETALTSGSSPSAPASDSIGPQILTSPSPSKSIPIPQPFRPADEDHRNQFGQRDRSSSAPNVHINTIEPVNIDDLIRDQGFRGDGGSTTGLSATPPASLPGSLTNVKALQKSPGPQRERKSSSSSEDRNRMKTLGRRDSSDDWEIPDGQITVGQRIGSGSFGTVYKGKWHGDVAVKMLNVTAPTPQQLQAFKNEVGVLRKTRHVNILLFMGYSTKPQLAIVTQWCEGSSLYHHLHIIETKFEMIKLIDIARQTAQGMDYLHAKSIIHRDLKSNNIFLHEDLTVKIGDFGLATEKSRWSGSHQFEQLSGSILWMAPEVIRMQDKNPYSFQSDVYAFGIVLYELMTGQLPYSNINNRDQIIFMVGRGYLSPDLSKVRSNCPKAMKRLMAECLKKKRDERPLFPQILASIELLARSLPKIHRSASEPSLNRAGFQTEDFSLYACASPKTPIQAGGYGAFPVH
row,IC50,SMILES
1,0.0599 µM,"COc1cc(-c2[nH]c(-c3ccccc3)nc2-c2ccnc(N[C@@H]3CCCNC3)n2)cnc1N [Compound 65, (R)-4-(5-(6-amino-5-methoxypyridin-3-yl)-2-phenyl-1H-imidazol-4-yl)-N-(piperidin-3-yl)pyrimidin-2-amine]"
2,0.0001 µM,"COc1cc(-c2[nH]c(-c3ccccc3)nc2-c2ccnc(NCCNC(C)=O)n2)cnc1N [Compound 67, N-(2-(4-(5-(6-amino-5-methoxypyridin-3-yl)-2-phenyl-1H-imidazol-4-yl)pyrimidin-2-ylamino)ethyl)acetamide]"
3,0.0001 µM,"COCC(=O)NCCNc1nccc(-c2nc(-c3ccccc3)[nH]c2-c2cnc(N)c(OC)c2)n1 [Compound 68, N-(2-(4-(5-(6-amino-5-methoxypyridin-3-yl)-2-phenyl-1H-imidazol-4-yl)pyrimidin-2-ylamino)ethyl)-2-methoxyacetamide]"
4,0.0003 µM,"COc1ccc(-c2nc(-c3ccncc3)c(-c3cnc(N)c(OC)c3)[nH]2)cc1 [Compound 69, 3-methoxy-5-(2-(4-methoxyphenyl)-4-(pyridin-4-yl)-1H-imidazol-5-yl)pyridin-2-amine]"
5,0.0004 µM,"COc1cc(-c2[nH]c(-c3ccccc3)nc2-c2ccnc(NCCNS(=O)(=O)c3ccc(Cl)cc3)n2)cnc1N [Compound 70, N-(2-(4-(5-(6-amino-5-methoxypyridin-3-yl)-2-phenyl-1H-imidazol-4-yl)pyrimidin-2-ylamino)ethyl)-4-chlorobenzenesulfonamide]"
6,0.0003 µM,"COc1cc(-c2[nH]c(-c3ccc(O)cc3)nc2-c2ccncc2)cnc1N [Compound 71, 4-(5-(6-amino-5-methoxypyridin-3-yl)-4-(pyridin-4-yl)-1H-imidazol-2-yl)phenol]"
7,0.0016 µM,"COc1cc(-c2nc(-c3ccccc3)[nH]c2-c2ccnc(NC3CC3)n2)cnc1N [Compound 72, 4-(4-(6-amino-5-methoxypyridin-3-yl)-2-phenyl-1H-imidazol-5-yl)-N-cyclopropylpyrimidin-2-amine]"
8,0.0011 µM,"COc1cc(-c2nc(-c3ccccc3)[nH]c2-c2ccnc(N)n2)cnc1N [Compound 73, 4-(4-(6-amino-5-methoxypyridin-3-yl)-2-phenyl-1H-imidazol-5-yl)pyrimidin-2-amine]"
9,0.0006 µM,"COc1cc(-c2nc(-c3ccccc3)[nH]c2-c2ccnc(NC[C@H](C)O)n2)cnc1N [Compound 74, (S)-1-(4-(4-(6-amino-5-methoxypyridin-3-yl)-2-phenyl-1H-imidazol-5-yl)pyrimidin-2-ylamino)propan-2-ol]"
10,0.0011 µM,"COc1cc(-c2nc(-c3ccccc3)[nH]c2-c2ccnc(NC[C@@H](C)O)n2)cnc1N [Compound 75, (R)-1-(4-(4-(6-amino-5-methoxypyridin-3-yl)-2-phenyl-1H-imidazol-5-yl)pyrimidin-2-ylamino)propan-2-ol]"
11,0.0015 µM,"COc1cc(-c2[nH]c(C3CC3)nc2-c2ccncc2)cnc1N [Compound 76, 5-(2-cyclopropyl-4-(pyridin-4-yl)-1H-imidazol-5-yl)-3-methoxypyridin-2-amine]"
12,0.089 µM,"COc1nc(-c2sc(-c3ccccc3)nc2-c2ccncc2)cnc1N [Compound 77, 3-methoxy-5-(2-phenyl-4-(pyridin-4-yl)thiazol-5-yl)pyrazin-2-amine]"
13,0.001 µM,"COc1cc(-c2nc(-c3cc(F)cc(F)c3)[nH]c2-c2ccncc2)cnc1N [Compound 78, 5-(2-(3,5-difluorophenyl)-5-(pyridin-4-yl)-1H-imidazol-4-yl)-3-methoxypyridin-2-amine]"
14,0.002 µM,"COc1cc(-c2nc(-c3ccc(OC(F)(F)F)cc3)[nH]c2-c2ccncc2)cnc1N [Compound 79, 3-methoxy-5-(5-(pyridin-4-yl)-2-(4-(trifluoromethoxy)phenyl)-1H-imidazol-4-yl)pyridin-2-amine]"
15,0.038 µM,"COc1cc(-c2[nH]c(-c3ccccc3)nc2C2=CCOCC2)cnc1N [Compound 80, 5-(4-(3,6-dihydro-2H-pyran-4-yl)-2-phenyl-1H-imidazol-5-yl)-3-methoxypyridin-2-amine]"
16,0.002 µM,"COc1cc(-c2nc(-c3ccccc3)[nH]c2-c2ccnc(NC(C)=O)c2)cnc1N [Compound 82, N-(4-(4-(6-amino-5-methoxypyridin-3-yl)-2-phenyl-1H-imidazol-5-yl)pyridin-2-yl)acetamide]"

row,IC50,SMILES
1,0.197 µM,"CNc1ncc(-c2nc(-c3ccccc3)[nH]c2-c2ccncc2)cn1 [Compound 83, N-methyl-5-(2-phenyl-5-(pyridin-4-yl)-1H-imidazol-4-yl)pyrimidin-2-amine]"
2,0.229 µM,"FC(F)(F)c1ccc(-c2nc(-c3ccncc3)c(-c3ccncc3)[nH]2)cc1 [Compound 84, 4,4′-(2-(4-(trifluoromethyl)phenyl)-1H-imidazole-4,5-diyl)dipyridine]"
3,0.537 µM,"COc1cc(-c2[nH]c(-c3ccccc3)nc2-c2ccn[nH]2)cnc1N [Compound 86, 3-methoxy-5-(2-phenyl-4-(1H-pyrazol-5-yl)-1H-imidazol-5-yl)pyridin-2-amine]"
4,0.391 µM,"N#Cc1cc(-c2[nH]c(-c3ccccc3)nc2-c2ccncc2)cnc1N [Compound 87, 2-amino-5-(2-phenyl-4-(pyridin-4-yl)-1H-imidazol-5-yl)nicotinonitrile]"
5,0.0001 µM,"COc1cc(-c2[nH]c(-c3ccccc3)nc2-c2ccnc(NCCNS(=O)(=O)C3CC3)n2)cnc1N [Compound 88, N-(2-(4-(5-(6-amino-5-methoxypyridin-3-yl)-2-phenyl-1H-imidazol-4-yl)pyrimidin-2-ylamino)ethyl)cyclopro-panesulfonamide]"
6,0.0137 µM,"COc1cc(-c2oc(-c3ccccc3)nc2-c2ccncc2)cnc1N [Compound 89, 3-methoxy-5-(2-phenyl-4-(pyridin-4-yl)oxazol-5-yl)pyridin-2-amine]"
7,0.113 µM,"COc1nc(-c2oc(-c3ccccc3)nc2-c2ccncc2)cnc1N [Compound 90, 3-methoxy-5-(2-phenyl-4-(pyridin-4-yl)oxazol-5-yl)pyrazin-2-amine]"
8,0.0044 µM,"COc1cc(-c2[nH]c(-c3ccccc3)nc2-c2ccnc(N[C@@H]3CCCN(S(=O)(=O)C4CC4)C3)n2)cnc1N [Compound 91, (R)-4-(5-(6-amino-5-methoxypyridin-3-yl)-2-phenyl-1H-imidazol-4-yl)-N-(1-(cyclopropylsulfonyl)piper-idin-3-yl)pyrimidin-2-amine]"
9,0.0003 µM,"COc1cc(-c2nc(-c3ccccc3)oc2-c2ccncc2)cnc1N [Compound 92, 3-methoxy-5-(2-phenyl-5-(pyridin-4-yl)oxazol-4-yl)pyridin-2-amine]"
10,0.0038 µM,"COc1cc(-c2[nH]c(-c3ccc(F)cc3)nc2-c2ccncc2F)cnc1N [Compound 93, 5-(2-(4-fluorophenyl)-4-(3-fluoropyridin-4-yl)-1H-imidazol-5-yl)-3-methoxypyridin-2-amine]"
11,0.0606 µM,"COc1cc(-c2[nH]c(-c3ccc(F)cc3)nc2-c2ccncc2Cl)cnc1N [Compound 94, 5-(4-(3-chloropyridin-4-yl)-2-(4-fluorophenyl)-1H-imidazol-5-yl)-3-methoxypyridin-2-amine]"
12,0.0025 µM,"COc1cc(-c2[nH]c(-c3ccc(F)cc3)nc2-c2ccnc(NC3CCN(S(=O)(=O)C4CC4)CC3)n2)cnc1N [Compound 95, 4-(5-(6-amino-5-methoxypyridin-3-yl)-2-(4-fluorophenyl)-1H-imidazol-4-yl)-N-(1-(cyclopropylsulfonyl)piper-idin-4-yl)pyrimidin-2-amine]"
13,0.0321 µM,"COc1cc(-c2[nH]c(-c3ccc(F)cc3)nc2-c2cn[nH]c2)cnc1N [Compound 96, 5-(2-(4-fluorophenyl)-4-(1H-pyrazol-4-yl)-1H-imidazol-5-yl)-3-methoxypyridin-2-amine]"
14,0.031 µM,"COCC(=O)N1CCC[C@@H](Nc2nccc(-c3nc(-c4ccc(C(F)(F)F)cc4)[nH]c3-c3cnc(N)c(OC)c3)n2)C1 [Compound 97, (R)-1-(3-(4-(5-(6-amino-5-methoxypyridin-3-yl)-2-(4-(trifluoromethyl)phenyl)-1H-imidazol-4-yl)pyrimidin-2-ylamino)piperidin-1-yl)-2-methoxyethanone]"
15,0.0001 µM,"COc1cc(-c2[nH]c(-c3ccc(F)cc3)nc2-c2ccnc(NCCNS(=O)(=O)C3CC3)n2)cnc1N [Compound 98, N-(2-(4-(5-(6-amino-5-methoxypyridin-3-yl)-2-(4-fluorophenyl)-1H-imidazol-4-yl)pyrimidin-2-ylamino)ethyl)cyclopro-panesulfonamide]"
